Legend:
human EAAT3 = biological target: T1, human EAAT3 (Homo sapiens, UniProt P43005); experiment: FLIPR Membrane Potential (FMP) assay, antagonist potency at human EAAT3; assay type: cell-based; settings: HEK-293 cells stably expressing human EAAT3; L-glutamate as agonist at EC80; antagonist applied 15 min before agonist; Kb by Cheng-Prusoff from IC50
T1 construct: expressed in transfected cells
T1 sequence (P43005 1-524): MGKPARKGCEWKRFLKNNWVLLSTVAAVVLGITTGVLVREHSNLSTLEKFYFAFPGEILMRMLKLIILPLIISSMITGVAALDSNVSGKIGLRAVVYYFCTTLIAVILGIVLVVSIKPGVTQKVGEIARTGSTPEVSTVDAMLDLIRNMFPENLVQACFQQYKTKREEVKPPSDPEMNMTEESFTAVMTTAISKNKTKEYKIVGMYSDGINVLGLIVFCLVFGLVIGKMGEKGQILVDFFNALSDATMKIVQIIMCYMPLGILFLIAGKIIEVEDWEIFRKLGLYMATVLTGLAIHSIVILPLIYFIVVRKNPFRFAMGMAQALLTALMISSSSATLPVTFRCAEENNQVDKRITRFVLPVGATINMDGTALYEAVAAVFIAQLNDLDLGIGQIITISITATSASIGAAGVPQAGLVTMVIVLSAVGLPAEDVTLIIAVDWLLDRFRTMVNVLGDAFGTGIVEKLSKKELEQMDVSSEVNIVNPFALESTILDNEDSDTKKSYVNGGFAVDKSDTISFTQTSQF
Method: The FLIPR Membrane Potential (FMP) Assay
HEK-293 cells stably expressing human EAAT3 were seeded at 55 000 cells/well in growth medium (DMEM glutamate free (Invitrogen 11960-044), 1% Pen Strep (10 ml/1 GIBCO BRL N°15140-023), 10% FCS non dialysed heat inactivated, 5 mg/l puromycin) in poly-D-lysine treated 96-well black microtiter plates with clear-bottom. After 24 h, the growth medium was removed and 100 μl/well of Krebs buffer (140 mM NaCl, 4.7 mM KCl, 2.5 mM CaCl2, 1.2 mM MgCl2, 11 mM HEPES, 10 mM D-glucose, pH=7.4) added. The cells were then loaded by adding 100 μl/well FMP assay dye (FLIPR Membrane Potential assay reagent, Molecular Devices). The 96-well plates were then incubated at 37° C. for 1 h. The depolarization of the cells will cause more dye to enter in the cells, where it will bind to intracellular proteins and lipids and cause an increase in the fluorescence signal. Antagonist potency at human EAAT3 was determined by using L-glutamate as agonist at a concentration which gives 80% of the maximum response. The antagonists were applied 15 min before the application of the agonist L-glutamate. The assays were performed at room temperature and measurements done by using a Fluorometric Imaging Plate Reader (FLIPR, Molecular Devices) and filter #2. Responses were measured as peak increase in fluorescence minus basal (i.e. fluorescence without addition of L-glutamate). Kb was determined using the Cheng-Prusoff equation Kb=IC50/[1+(A/EC50)], where IC50 is the concentration of the antagonist producing 50% inhibition, A is the concentration of the agonist against which the IC50 is being determined (at EC80) and EC50 is the concentration of the agonist producing 50% […].

Row | SMILES | Kb (human EAAT3) [µM] | melting point [°C]
1 | CCc1nccn1-c1cc(C(=O)NC(C)(C)C)cc(-c2ccc(F)cc2)c1 [Example 10, N-tert-Butyl-3-(2-ethylimidazol-1-yl)-5-(4-fluorophenyl)-benzamide] | 0.11 | 238
2 | CC(C)(C)NC(=O)c1cc(-c2ccc(Cl)cc2)cc(-n2ccnc2C(C)(C)O)c1 [Example 40, N-tert-Butyl-3-(4-chlorophenyl)-5-[2-(2-hydroxypropan-2-yl)-imidazol-1-yl]-benzamide] | 0.07 | 78
3 | CC1(NC(=O)c2cc(-c3ccc(Cl)cc3)cc(-n3ccnc3C3CC3)c2)CCS(=O)(=O)C1 (racemic) [Example 39, (RS)-3-(4-chlorophenyl)-5-(2-cyclopropylimidazol-1-yl)-N-(3-methyl-1,1-dioxothiolan-3-yl)-benzamide] | 0.18 | 115
4 | CC(C)(C)NC(=O)c1cc(-c2ccc(F)cc2)cc(-n2ccnc2C(C)(C)C)c1 [Example 32, N-tert-Butyl-3-(2-tert-butylimidazol-1-yl)-5-(4-fluorophenyl)-benzamide] | 0.18 | 218
5 | CCc1nccn1-c1cc(C(=O)NC(C)(C)C)cc(-c2ccc(Cl)cc2)c1 [Example 4, N-tert-Butyl-3-(4-chlorophenyl)-5-(2-ethylimidazol-1-yl)-benzamide] | 0.18 | 
6 | CC(C)c1nccn1-c1cc(C(=O)NC(C)(C)C(F)(F)F)cc(-c2ccc(Cl)cc2)c1 [Example 7, 3-(4-Chlorophenyl)-5-(2-propan-2-ylimidazol-1-yl)-N-(1,1,1-trifluoro-2-methylpropan-2-yl)-benzamide] | 0.2 | 115.5
7 | Cc1nccn1-c1cc(C(=O)NC(C)(C)C)cc(-c2ccc(Cl)cc2)c1 [Example 3, N-tert-Butyl-3-(4-chlorophenyl)-5-(2-methylimidazol-1-yl)-benzamide] | 0.19 | 220
8 | CCC(C)(C)NC(=O)c1cc(-c2ccc(Cl)cc2)cc(-n2ccnc2C(C)C)c1 [Example 36, 3-(4-Chlorophenyl)-N-(2-methylbutan-2-yl)-5-(2-propan-2-ylimidazol-1-yl)-benzamide] | 0.33 | 87
9 | CC(C)(CO)NC(=O)c1cc(-c2ccc(Cl)cc2)cc(-n2ccnc2C(C)(C)C)c1 [Example 43, 3-(2-tert-Butylimidazol-1-yl)-5-(4-chlorophenyl)-N-(1-hydroxy-2-methylpropan-2-yl)-benzamide] | 0.08 | 234
10 | CC(C)(C)NC(=O)c1cc(-c2ccc(C(F)(F)F)cc2)cc(-n2ccnc2C(C)(C)C)c1 [Example 33, N-tert-Butyl-3-(2-tert-butylimidazol-1-yl)-5-[4-(trifluoromethyl)-phenyl]-benzamide] | 0.29 | 225
11 | CC(C)c1nccn1-c1cc(C(=O)NC(C)(C)C)cc(-c2ccc(F)cc2)c1 [Example 6, N-tert-Butyl-3-(4-fluorophenyl)-5-(2-propan-2-ylimidazol-1-yl)-benzamide] | 0.076 | 224
12 | CC(C)c1nccn1-c1cc(C(=O)NC(C)(C)CO)cc(-c2ccc(Cl)cc2)c1 [Example 41, 3-(4-Chlorophenyl)-N-(1-hydroxy-2-methylpropan-2-yl)-5-(2-propan-2-yl-imidazol-1-yl)-benzamide] | 0.54 | 97
13 | CCc1nccn1-c1cc(C(=O)NC(C)(C)C2CC2)cc(-c2ccc(Cl)cc2)c1 [Example 9, 3-(4-Chlorophenyl)-N-(2-cyclopropylpropan-2-yl)-5-(2-ethylimidazol-1-yl)-benzamide] | 0.22 | 183
14 | CC(C)(C)NC(=O)c1cc(-c2ccc(Cl)cc2)cc(-n2ccnc2C(C)(C)C)c1 [Example 28, N-tert-Butyl-3-(2-tert-butylimidazol-1-yl)-5-(4-chlorophenyl)-benzamide] | 0.16 | 101
15 | Cc1ccc(-c2cc(C(=O)NC(C)(C)C)cc(-n3ccnc3C(C)C)c2)cc1F [Example 22, N-tert-Butyl-3-(3-fluoro-4-methylphenyl)-5-(2-propan-2-ylimidazol-1-yl)-benzamide] | 0.12 | 98
16 | Cc1nccn1-c1cc(C(=O)NC(C)(C)C2CC2)cc(-c2ccc(F)cc2)c1 [Example 19, N-(2-Cyclopropylpropan-2-yl)-3-(4-fluorophenyl)-5-(2-methylimidazol-1-yl)-benzamide] | 0.29 | 184
17 | CC(C)(C)NC(=O)c1cc(-c2ccc(Cl)cc2)cc(-n2ccnc2C2CC2)c1 [Example 5, N-tert-Butyl-3-(4-chlorophenyl)-5-(2-cyclopropylimidazol-1-yl)-benzamide] | 0.12 | 
18 | Cc1cc(-c2cc(C(=O)NC(C)(C)C)cc(-n3ccnc3C(C)C)c2)ccc1F [Example 27, N-tert-Butyl-3-(4-fluoro-3-methylphenyl)-5-(2-propan-2-ylimidazol-1-yl)-benzamide] | 0.28 | 98.5
19 | CC(C)c1nccn1-c1cc(C(=O)NC(C)(C)C)cc(-c2ccc(C(F)(F)F)cc2)c1 [Example 21, N-tert-Butyl-3-(2-propan-2-ylimidazol-1-yl)-5-[4-(trifluoromethyl)-phenyl]-benzamide] | 0.18 | 96.5
20 | CCC(C)(C)NC(=O)c1cc(-c2ccc(Cl)cc2)cc(-n2ccnc2CO)c1 [Example 30, 3-(4-Chlorophenyl)-5-[2-(hydroxymethyl)-imidazol-1-yl]-N-(2-methylbutan-2-yl)-benzamide] | 0.16 | 76
21 | CC(C)(C)NC(=O)c1cc(-c2ccc(Cl)cc2)cc(-n2ccnc2CO)c1 [Example 29, N-tert-Butyl-3-(4-chlorophenyl)-5-[2-(hydroxymethyl)-imidazol-1-yl]-benzamide] | 0.15 | 114
22 | CC(C)(C)NC(=O)c1cc(-c2ccc(F)cc2)cc(-n2ccnc2C(C)(C)O)c1 [Example 34, N-tert-Butyl-3-(4-fluorophenyl)-5-[2-(2-hydroxypropan-2-yl)-imidazol-1-yl]-benzamide] | 0.1 | 183
23 | CC(C)(C)NC(=O)c1cc(-c2ccc(F)cc2)cc(-n2ccnc2C2CC2)c1 [Example 16, N-tert-Butyl-3-(2-cyclopropylimidazol-1-yl)-5-(4-fluorophenyl)-benzamide] | 0.13 | 250.5
24 | CCC(C)(C)NC(=O)c1cc(-c2ccc(Cl)cc2)cc(-n2ccnc2C(C)(C)C)c1 [Example 31, 3-(2-tert-Butylimidazol-1-yl)-5-(4-chlorophenyl)-N-(2-methylbutan-2-yl)-benzamide] | 0.41 | 189.5
25 | Cc1nccn1-c1cc(C(=O)NC(C)(C)C(F)(F)F)cc(-c2ccc(Cl)cc2)c1 [Example 14, 3-(4-Chlorophenyl)-5-(2-methylimidazol-1-yl)-N-(1,1,1-trifluoro-2-methylpropan-2-yl)-benzamide] | 0.13 | 199.5
26 | CC(C)(C)NC(=O)c1cc(-c2ccc(Cl)cc2)cc(-n2ccnc2)c1 [Example 2, N-tert-Butyl-3-(4-chlorophenyl)-5-imidazol-1-ylbenzamide] | 0.23 | 
27 | CC(C)c1nccn1-c1cc(C(=O)NC(C)(C)C)cc(-c2ccc(C3CC3)cc2)c1 [Example 25, N-tert-Butyl-3-(4-cyclopropylphenyl)-5-(2-propan-2-ylimidazol-1-yl)-benzamide] | 0.21 | 95
28 | CC(C)(CO)NC(=O)c1cc(-c2ccc(Cl)cc2)cc(-n2ccnc2C2CC2)c1 [Example 42, 3-(4-Chlorophenyl)-5-(2-cyclopropylimidazol-1-yl)-N-(1-hydroxy-2-methylpropan-2-yl)-benzamide] | 0.17 | 99
29 | CC(C)c1nccn1-c1cc(C(=O)NC(C)(C)C)cc(-c2ccc(Cl)cc2)c1 [Example 1, N-tert-Butyl-3-(4-chlorophenyl)-5-(2-propan-2-ylimidazol-1-yl)-benzamide] | 0.18 | 

From patent US10029989B2, “Imidazole derivatives” (Hoffmann-La Roche Inc., priority 2015, dated 2018)
